In paper PMC12392461, “Beyond Estrogenicity: A Comparative Assessment of Bisphenol A and Its Alternatives in In Vitro Assays Questions Safety of Replacements” (Environmental Science & Technology, 2025):
Where two headings read alike, the source gives them in different places.

Legend:
[1] = test system: Mitochondrial Membrane Potential; assay: cells; conditions: for Specificity ratio (SRbaseline) SRMMP: against baseline cytotoxicity; for Specificity ratio (SRcytotoxicity) SRMMP: against experimental cytotoxicity; for Relative effect potency REPMMP: relative to BPA; for EC10, linear: linear model; for SR (MMP inhibition): specificity ratio
Text: All bioassay media components and the ERα-UAS-bla GripTite and PPARγ-UAS-bla cells were obtained from Thermo Fisher Scientific (Waltham, MA, USA). AREc32 reporter gene cells based on MCF7 were provided by C. Roland Wolf (Cancer Research UK); AhR CALUX cells (H4L7.5c2 derived from H4IIe) were provided by Michael Denison (UC Davis, USA); and SH-SY5Y cells were purchased from Sigma-Aldrich.
(§1) Cell culture conditions and bioassay protocols including response detection are provided in Text S2.1–2.4 and Table S3. − Cell viability was determined from cell confluency using an IncuCyte S3 Live-Cell Analysis System (Sartorius AG, Essen, Germany) before and after exposure, except for SH-SY5Y cells (live–dead staining with Nuclear Green LcS1 and propidium iodide, Abcam, UK). For metabolic activation experiments, cell viability was assessed using the ToxBLAzer DualScreen Kit (Thermo Fisher Scientific) to capture the remaining toxicity in ERα-UAS-bla GripTite after treatment with the aCYP catalyst (details in Text S2.4).
For ARE, the concentration that triggered an induction ratio of 1.5 (ECIR1.5) was used as the benchmark value, as detailed in Text S2.5. IC10 values also served as a threshold for data analysis in all assays; only concentrations below IC10 were considered when deriving EC10 or ECIR1.5. […]
S2: Cell culture and bioassays
S2.1: Cell Culturing Conditions
All suppliers and sources are given in detail in SI-Excel S3. The bioassay media for the different assays were prepared as follows: Assay medium for ER alpha-UAS-bla GripTite (ERα) and […]
2% charcoal-stripped FBS, and 100 U/mL penicillin-streptomycin. MitoOxTox and AhR assay medium was comprised of 90% DMEM with GlutaMAX, supplemented with 10% FBS, and 100 U/mL penicillin-streptomycin. […]
S2.2: Cell Seeding and Incubation. For all bioassays, cell suspensions in the respective assay medium were dispensed into each well of 384-well plates using a MultiFlo Dispenser (Biotek, (now Agilent), Winooski, VT, U.S.). After seeding, the plates were incubated at 37° C and 5% CO₂ for […]. The final cell densities and plate types were as follows: Black poly-D-lysine […]
6500 cells/well, ERα: 5000 cells/well. White 384-well plates with a clear bottom (Product No.
(§2) NYC, U.S.) for AhR: 3250 cells/well. Black Collagen I coated plates were used (Product No.
(§3) S2.3: Chemical Dosing and Assay Analysis Procedures. The dosing procedure and high-throughput assay workflow have been described in detail before. 9 The dosing concentrations […]
Stock solutions were then either

SH-SY5Y cells = conditions: for IC10, linear transformed / IC10, linear / logIC10: NOI bioassay cytotoxicity, dosing range all; for IC10, linear: linear model; for logIC10: log-logistic model; for Toxic ratio (TR) TRNOI: against baseline cytotoxicity; for IC10, SH-S5Y5, NOI: cytotoxicity, NOI assay cells
Procedure: as §1, with “S2.4). […]” for “S2.4).”
We measured the cytotoxicity of BPA and its alternatives in HEK293H (PPARγ), HEK293T (ERα), H4IIe (AhR CALUX), MCF7 (ARE/MMP), and differentiated SH-SY5Y cells (Table S6). […]
medium, supplemented with 2% B-27 Supplement and 2 mM GlutaMAX Supplement. SH - SY5Y cells were differentiated with 10 µM all-trans retinoic acid prior to the assay.
S2.2: Cell Seeding and Incubation. For all bioassays, cell suspensions in the respective assay medium were dispensed into each well of 384-well plates using a MultiFlo Dispenser (Biotek, (now Agilent), Winooski, VT, U.S.). After seeding, the plates were incubated at 37° C and 5% […]
as §2, §3
Stock solutions were then either added directly to the respective cell culture medium or evaporated under nitrogen, followed by replenishment with fresh medium. The final solvent content in each well was kept below 1% for methanol, 0% for acetonitrile.
Dosing plates were prepared as 11 -step serial dilutions using a Hamilton Microlab Star robotic system (Hamilton, Bonaduz, Switzerland), and chemicals were dosed in duplicates by transferring 10 μL twice from the dosing plates to the cell plates . After quantifying cell confluency as described in S2. 4., the exposed cells were incubated at 37° C and 5% CO₂ for an additional 24 h. All chemicals were tested in all assays with at least three independent […]
S2.4: Cell Viability Measurement s and bioanalytical protocols . The confluency as a measure of cell viability was determined with an IncuCyte S3 Live -Cell Analysis System (Sartorius AG, Essen, Germany). With this method the confluency of cells in a microscopy image are normalized to control wells without cells and compared before and after 24 hours of exposure.
This method has been described previously 13. Cell viability of SH-SY5Y cells was measured […]
propidium iodide (PI, Abcam, Cambridge, U.K.).14 Nuclear Green LCS1 is a membrane-permeable dye that stains the nuclei of all cells, whereas PI only enters cells with compromised membrane integrity (non-viable cells). After staining, live cells show green nuclei without red fluorescence, while dead cells display both green and red nuclear fluorescence due to PI […]
intercalation. […]

[2] = Arec32, read-out: EC10, MMP (M)
[3] = Arec32, read-out: EC10, linear transformed

Compound | EC10 ([1]; Arec32, read-out: EC10, MMP) | EC10 [1, 2] | EC10 ([1]; Arec32, read-out: EC10, linear) | EC10 [1, 3] | EC10 ([1]; Arec32, read-out: logEC10) | Specificity ratio (SRbaseline) SRMMP [1] | Specificity ratio (SRcytotoxicity) SRMMP [1] | Relative effect potency REPMMP [1] | IC10, linear transformed (SH-SY5Y cells) | IC10, linear (SH-SY5Y cells) | logIC10 (SH-SY5Y cells) | Toxic ratio (TR) TRNOI (SH-SY5Y cells) | IC10, SH-S5Y5, NOI (SH-SY5Y cells) | EC10, linear ([1]; MMP bioassay, dosing range all) | log(1/EC10) MMP ([1]; input of the ToxPi score, values up to 1.00) | SR (MMP inhibition) [1] | logEC10 ([1]; MMP bioassay, dosing range all, log-logistic model)
CCC(C)(c1ccc(O)cc1)c1ccc(O)cc1 [BPB, 4,4'-(Butane-2,2-diyl)diphenol] | 1.64e-05 M | 1.64e-05 M | 9.79e-06 M | 1.62e-05 M | 1.62e-05 M | 1.33 | 2.14 | 1.71 | 1.67E-04 | 2.31E-04 | -3.78 | 0.10 | 167 µM |  |  |  | 
CC(c1ccc(O)cc1)c1ccc(O)cc1 [BPE, 4,4′-Ethylidenbisphenol] | 3.21e-05 M | 3.21e-05 M |  | 3.01e-05 M | 3.24e-05 M |  |  |  | 2.79E-04 | 5.29E-04 | -3.55 |  | 279 µM | no effect |  |  | 
Oc1ccc(Cc2ccc(O)cc2)cc1 [BPF, Bis(4-hydroxyphenyl)methane] |  |  | 0.000167 M | 0.000167 M | 0.000166 M |  |  |  | 5.69E-04 | 5.56E-04 | -3.24 |  | 569 µM |  |  |  | 
CC(C)c1cc(C(C)(C)c2ccc(O)c(C(C)C)c2)ccc1O [BPG, 2,2-Bis(4-hydroxy-3-isopropylphenyl)propane] | 3.12e-06 M | 3.12e-06 M | 2.65e-06 M | 3.08e-06 M | 3.09e-06 M | 1.70 | 2.79 | 8.97 | 3.61E-05 | no cytotoxicity | -4.44 | 0.08 | 36.1 µM |  |  |  | 
CC(C)(c1ccc(O)c(-c2ccccc2)c1)c1ccc(O)c(-c2ccccc2)c1 [BPPH, 2,2-Bis(2-hydroxy-5-biphenylyl)propane] | 1.96e-06 M | 1.96e-06 M |  | 1.94e-06 M | 1.95e-06 M | 2.08 | 3.95 | 14.27 | 2.31E-05 | no cytotoxicity | -4.64 | 0.08 | 23.1 µM | no effect | 1.00 |  | 
O=S(=O)(c1ccc(O)cc1)c1ccc(O)cc1 [BPS, 4,4'-Sulfonyldiphenol] | 0.000117 M | 0.000117 M | 7.55e-05 M | 0.000118 M | 0.000117 M |  |  |  |  | 1.85E-04 | -3.71 |  | 195 µM |  |  |  | 
C=CCOc1ccc(S(=O)(=O)c2ccc(O)cc2)cc1 [BPS-MAE, 4-[[4-(Allyloxy)phenyl]sulfonyl]phenol] | 7.85e-05 M | 7.85e-05 M | 5.59e-05 M | 8.31e-05 M | 7.76e-05 M |  |  |  | 1.36E-04 | no cytotoxicity | -3.87 |  | 136 µM |  |  |  | 
O=S(=O)(c1ccc(O)cc1)c1ccc(OCc2ccccc2)cc1 [BPS-MPE, 4-[4-(benzyloxy)benzenesulfonyl]phenol] | 5.59e-06 M | 5.59e-06 M | 3.72e-06 M | 5.91e-06 M | 5.62e-06 M | 6.33 | 21.99 | 5.01 |  | no cytotoxicity | no cytotoxicity |  |  |  |  | 22 | 
Oc1ccc(Sc2ccc(O)cc2)cc1 [BPT, 4,4'-Thiodiphenol] | 1.83e-05 M | 1.83e-05 M |  | 1.82e-05 M | 1.82e-05 M |  |  |  |  | 1.40E-04 | no cytotoxicity |  | 140 µM | no effect |  | > 10 | 
Oc1ccc(C2(c3ccc(O)cc3)CCCCC2)cc1 [BPZ, 1,1'-Bis(4-hydroxyphenyl)cyclohexane] | 2.21e-05 M | 2.21e-05 M | 1.31e-05 M | 2.39e-05 M | 2.19e-05 M |  |  |  | 7.89E-05 | 7.12E-05 | -4.10 |  | 78.9 µM |  |  |  | 
Cc1ccc(S(=O)(=O)NC(=O)Nc2ccc(Cc3ccc(NC(=O)NS(=O)(=O)c4ccc(C)cc4)cc3)cc2)cc1 [BTUM, 4,4'-Bis(p-tolylsulfonylureido)diphenylmethane] |  |  |  |  |  |  |  |  |  | no cytotoxicity | no cytotoxicity |  |  | no effect |  |  | no effect
